In PubChem BioAssay AID179 (DTP/NCI, 2004) one finds EC50, IC50 and outcome data, which are given here for 48 compounds.

The source made the active and inactive calls.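 The calls were made as follows: active = compounds giving half or more protection of infected cells from virus-caused growth loss, again on retest; inactive = the rest.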 *1 amine or outer side, *2 acyl side, *3 side chain or, on linkers, in order; H or OH if unused. Where a SMILES comes first, the peptide text is derived from it. [ ]: non-standard residue; d: D form. The star is where a group is joined. Phe(4-NO2) = N[CH](Cc1ccc([N+](=O)[O-])cc1)C(=O)O; X21 = NC(=O)CCC(CN[*:1])C(=O)[*:2]; Cbz = O=C(OCc1ccccc1)*

The test system of the experiment is CEM cells HIV-1 protection, formazan growth assay. Briefly: NCI AIDS Antiviral Assay. The settings on record: for IC50: measured here: growth of uninfected CEM cells. The procedure, abridged: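 Human CEM cells, uninfected and HIV-1-infected, received five drug concentrations, and growth was read by soluble formazan assay. Compounds giving at least 50% protection were retested; reproducible 100% protection defined confirmed active.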

Regarding `NC1=NC(c2ccccc2)C2=C(N1)C(=O)N(Cc1ccccc1)C2` (configuration not stated), the EC50 was over 204 µM and the IC50 was 72.4 µM.

Turning to `CC(=O)OCC1OC(n2ccc(=O)[nH]c2=O)C(OC(C)=O)C(OC(C)=O)C1OC(C)=O` (configuration not stated), the EC50 was over 562 µM and the IC50 is over 562 µM. For the compound `N#CC(C#N)=C1C(=O)NC(N)=C1C#N`, the EC50 is over 200 µM and the IC50 was over 200 µM. On to `O=c1[nH]c(O)c(/C=N/C(=S)Nc2ccccc2)c(=O)[nH]1`, for which the outcome was inactive.

As to `COc1ccc(OC)c(CNc2ccc(C(=O)O)cc2)c1`, the EC50 is over 200 µM and the IC50 is over 200 µM. Regarding `CO[C@@]12[C@@H]3N[C@@H]3CN1C1=C(C(=O)C(N(C)c3ccc(O)cc3)=C(C)C1=O)[C@@H]2COC(N)=O`, the EC50 was over 200 µM and the IC50 was 1.35 µM. On to `O=c1onc2n1-c1cc(Cl)ccc1C(=S)N1CSCC21` (configuration not stated), for which the EC50 was over 200 µM and the IC50 came out at 105 µM. For the compound `O=c1oc(-c2ccccc2Br)ns1`, the EC50 was over 100 µM and the IC50 was 52.5 µM.

With `COC(=O)C1CC(C=[N+](C)C)=C(SC)N1C(=O)OCc1ccccc1` (configuration not stated), the EC50 is over 200 µM and the IC50 stood at 191 µM. Turning to `O=c1cccc(-c2cccc(=O)[nH]2)[nH]1`, the outcome was inactive. In the case of `O=C(N=C1[Se]C(=Nc2ccccc2)C(=Nc2ccccc2)N1c1ccccc1)c1ccccc1`, the EC50 was over 200 µM and the IC50 came to 107 µM. As for `O=c1[nH]c2cc3c(cc2n2cccc12)oc1ccccc13`, the EC50 was over 200 µM and the IC50 is over 200 µM. For the compound `C/C(=N\NC(C)(C)C)c1sc(-c2nc(C)c(/C(C)=N/NC(C)(C)C)s2)nc1C`, the EC50 was over 44.7 µM and the IC50 is over 44.7 µM.

`CCc1n[nH]c(=O)n1-n1c(C)ccc1C`: the EC50 was over 200 µM and the IC50 is over 200 µM. Consider `O=C(Nc1cccc([N+](=O)[O-])c1)c1n[nH]n(-c2cccc([N+](=O)[O-])c2)c1=O`, for which the EC50 is over 200 µM and the IC50 is over 200 µM. As to `Brc1ccc(CCNCCN2CCCCC2)cc1`, the EC50 was over 102 µM and the IC50 stood at 29.5 µM. On to `O=c1[nH]c2ccccc2c(O)c1/C=N/C(=S)NC1CCCCC1`, for which the EC50 was over 200 µM and the IC50 is over 200 µM. With `CCN(CC)CCSSCCN(CC)CC`, the EC50 is over 200 µM and the IC50 was 38.9 µM.

`COC(=O)C1(C)CCCC2(C)C1CCC13OCC(CC21)C1(C(C)C)OC31` (configuration not stated): the outcome was inactive. `O=C(O)c1ccccc1C(=O)Nc1ccc(S(=O)(=O)Nc2nccs2)cc1`: the EC50 was over 200 µM and the IC50 is over 200 µM.

As for `COP(=O)(OC)C(Cc1c[nH]c2ccccc12)NC(=O)OCc1ccccc1` (configuration not stated), the EC50 was over 200 µM and the IC50 was over 200 µM. With `COc1ccc(/C=C/C(=O)c2cc(OC)cc(OC)c2)cc1`, the EC50 was over 200 µM and the IC50 is 0.955 µM. Consider `CCn1c(=O)c2c(=O)[nH][nH]c2c2ccccc21`, for which the EC50 is over 200 µM and the IC50 is over 200 µM. On to `CCN(CC)C(=S)N/N=C/c1cc(OC)ccc1O`, for which the EC50 was over 200 µM and the IC50 was 10 µM. Turning to `COc1ccc(C(NS(=O)(=O)c2ccc(C)cc2)c2c(C(CBr)OC)c3ccccc3n2S(=O)(=O)c2ccccc2)cc1OC` (configuration not stated), the EC50 was over 151 µM and the IC50 worked out at 31.6 µM. Consider `N#CC(C#N)N=Cc1ccncc1`, for which the EC50 is over 200 µM and the IC50 was 170 µM. As for `c1ccc(CC2COC(c3cccs3)=N2)cc1` (configuration not stated), the EC50 is over 200 µM and the IC50 amounted to 126 µM. For the compound `O=C(c1ccccc1)[C@H]1Nc2ccc(Cl)cc2[C@H]2CCC[C@@H]12`, the EC50 is over 4.68 µM and the IC50 is over 4.68 µM. For the compound `O=C1CCC[C@H]2O[C@@H](COCc3ccccc3)C[C@@H]12`, the EC50 was over 200 µM and the IC50 worked out at 151 µM.

Consider `Cn1c2ccc([N+](=O)[O-])cc2c(=O)n1Cc1ccccc1F`, for which the EC50 was over 200 µM and the IC50 worked out at 58.9 µM. As for `O=c1cc(-c2ccccc2)oc2cc(O)cc(O)c12`, the EC50 is over 87.1 µM and the IC50 is 38 µM. With `Cn1c(=O)c2c(nc3n2CCC(=O)N3)n(C)c1=O`, the EC50 was over 251 µM and the IC50 is over 251 µM.

Consider `O=C1c2ccccc2C(=O)N1C/C=N/NS(=O)(=O)c1ccc(Cl)cc1`, for which the EC50 is over 95.5 µM and the IC50 is over 95.5 µM. With `COC(=O)Nc1cn2cc(C(=O)c3cccs3)ccc2n1`, the EC50 is over 9.12 µM and the IC50 is 0.0331 µM. Turning to `NCCc1cc2c3c(c1)CCCN3CCC2`, the EC50 was over 200 µM and the IC50 was 11.2 µM. In the case of `CCC(C)C(NC(=O)C(CCC(N)=O)NC(=O)C1CCCN1)C(=O)NC(C(=O)NC(CC(C)C)C(=O)NC(Cc1c[nH]c2ccccc12)C(=O)NCC(CCC(N)=O)C(=O)NC(CCCN=C(N)N)C(=O)N1CCCC1C(=O)NC(CC(C)C)C(=O)O)C(C)O` (configuration not stated) (H-PQITLW[X21]RPL-OH; configuration not given here), the outcome was inactive. With `CC(C)=CCC/C(C)=C/Cc1c(O)ccc2cc(-c3cc(O)cc(O)c3CC=C(C)C)oc12`, the EC50 is over 22.4 µM and the IC50 worked out at 18.2 µM. For the compound `CCOC(=O)CCC(NC(=O)OCc1ccccc1)C(=O)NC(CCC(=O)OCC)C(=O)NC(CCC(=O)OCC)C(=O)NC(CCC(=O)OCC)C(=O)NC(CCC(=O)OCC)C(=O)NC(Cc1ccc([N+](=O)[O-])cc1)C(=O)NC(CCC(=O)OCC)C(=O)NC(CCC(=O)OCC)C(=O)NC(CCC(=O)OCC)C(=O)NC(CCC(=O)OCC)C(=O)NC(CCC(=O)OCC)C(=O)OCC` (configuration not stated) (Cbz-E(OEt)E(OEt)E(OEt)E(OEt)E(OEt)[Phe(4-NO2)]E(OEt)E(OEt)E(OEt)E(OEt)E(OEt)-OEt; configuration not given here), the EC50 is over 50.1 µM and the IC50 is over 50.1 µM. Take `c1ccc2c(c1)-c1ccccc1C2NC1=NCCO1`: the EC50 is over 200 µM and the IC50 is 26.3 µM.

For `O=C1NC2=NN=C(c3ccc(Br)cc3)CN2NC12c1ccccc1-c1ccccc12`, the EC50 is over 100 µM and the IC50 is over 100 µM. For the compound `Cc1nnc2sc(N/N=C/c3ccccc3)nn12`, the EC50 is over 200 µM and the IC50 is over 200 µM.

Turning to `N#Cc1cccc(C=NC23CC4CC(CC(C4)C2)C3)c1`, the EC50 was over 97.7 µM and the IC50 is 74.1 µM.

In the case of `CC(C)(C)OC(=O)C1C(=O)C(C(=O)OC(C)(C)C)C23CCCCCCCCCCC12C(C(=O)OC(C)(C)C)C(=O)C3C(=O)OC(C)(C)C` (configuration not stated), the EC50 was over 18.6 µM and the IC50 is over 18.6 µM. Consider `CC(SSC(C)N1C(=O)c2ccccc2C1=O)N1C(=O)c2ccccc2C1=O` (configuration not stated), for which the EC50 is over 100 µM and the IC50 was over 100 µM.

As for `C=CCn1cc(C(=O)NC(=O)NCCCCCOC(=O)CCCCCCCCCCC(=O)OCCCCCNC(=O)NC(=O)c2cn(CC=C)c(=O)n(C)c2=O)c(=O)n(C)c1=O`, the EC50 is over 5.75 µM and the IC50 was over 5.75 µM. Consider `COC(=O)C1=COC2OC3/C(=C\c4ccc(O)c(OC)c4)C(=O)OC34C=CC1C24` (configuration not stated), for which the EC50 was over 200 µM and the IC50 was 24 µM. `Cc1ccc(/C=N/NS(=O)(=O)c2ccc(/C=C3\NC(=O)NC3=O)cc2)cc1`: the EC50 is over 200 µM and the IC50 is over 200 µM. For the compound `N#CC1CC(c2ccccc2)=NC1c1ccccc1` (configuration not stated), the EC50 was over 29.5 µM and the IC50 is over 29.5 µM.
